Patent US8058242B2, “Chimeric proteins with natriuretic activity” (The University of Queensland, priority 2004, dated 2011)
Positions of bridges follow the written chain, without caps; N, C: chain ends. Non-standard residues stand in square brackets, D forms with d. Residues, ends and D or L forms follow the SMILES beside them. No end group written: not given here. Cha = N[C@@H](CC1CCCCC1)C(=O)O; pGlu = O=C1CC[C@@H](C(=O)O)N1

Experiments:
[1] = biological target: T1, Natriuretic Peptide Receptor-A (NPR-A) signaling in MDCK cells (Canis lupus familiaris, UniProt A0A8I3MHU3); format: cell-based, canine; details: stimulation of cGMP accumulation in MDCK cells; for EC50: read-out: EC50 (M) ± Standard Error
T1 sequence (A0A8I3MHU3 32-1060): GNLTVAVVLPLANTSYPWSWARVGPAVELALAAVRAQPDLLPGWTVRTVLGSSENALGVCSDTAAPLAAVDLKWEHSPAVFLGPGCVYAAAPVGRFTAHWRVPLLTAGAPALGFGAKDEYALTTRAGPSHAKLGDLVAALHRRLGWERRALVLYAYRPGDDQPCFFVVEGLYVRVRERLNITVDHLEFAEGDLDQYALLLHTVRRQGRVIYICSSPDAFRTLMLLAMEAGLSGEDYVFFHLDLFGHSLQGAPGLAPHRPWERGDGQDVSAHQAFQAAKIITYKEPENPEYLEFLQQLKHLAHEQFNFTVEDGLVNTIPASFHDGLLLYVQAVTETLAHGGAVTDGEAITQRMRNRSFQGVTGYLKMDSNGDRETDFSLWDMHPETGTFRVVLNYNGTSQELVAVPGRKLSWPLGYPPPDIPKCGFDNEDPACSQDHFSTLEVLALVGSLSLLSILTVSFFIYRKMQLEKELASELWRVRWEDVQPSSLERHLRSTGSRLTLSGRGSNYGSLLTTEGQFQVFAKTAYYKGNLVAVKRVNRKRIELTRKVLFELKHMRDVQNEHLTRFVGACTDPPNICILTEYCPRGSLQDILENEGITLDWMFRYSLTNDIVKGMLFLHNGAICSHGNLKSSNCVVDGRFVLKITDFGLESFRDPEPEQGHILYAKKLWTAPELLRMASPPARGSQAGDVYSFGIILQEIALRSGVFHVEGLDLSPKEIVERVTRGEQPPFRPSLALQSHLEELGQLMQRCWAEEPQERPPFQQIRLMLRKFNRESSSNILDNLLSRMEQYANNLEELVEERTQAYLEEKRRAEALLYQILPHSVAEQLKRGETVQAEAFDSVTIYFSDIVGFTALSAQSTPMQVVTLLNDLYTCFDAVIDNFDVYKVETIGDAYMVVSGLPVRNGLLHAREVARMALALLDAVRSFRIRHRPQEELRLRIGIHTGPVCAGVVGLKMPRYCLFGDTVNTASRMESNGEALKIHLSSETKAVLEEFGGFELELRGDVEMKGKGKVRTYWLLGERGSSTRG

[2] = test system: denuded aortic rings, GC A receptor; assay: Relaxation of noradrenaline constricted endothelium-denuded aortic rings (Example 11); set-up: species or system rat; details: GC-A mediated
Procedure: Male Sprague Dawley rats were killed and the descending thoracic aorta rapidly removed and flushed with physiological solution. After being cleared of adhering fat and connective tissue, 5 mm rings were mounted under 10 g resting tension, between two stainless steel hooks, in organ baths (37° C.) containing carbogenated (95% O2 and 5% CO2) physiological salt solution of the following composition (mM): NaCl, 118.4; NaHCO3, 25; glucose, 11; KCl, 4.7; MgSO4, 1.2; KH2PO4, 1.2 and CaCl2, 2.5. The lower hook was attached to a tissue holder and the upper hook to a force displacement transducer (Grass FTO3). Where indicated endothelial cells were removed by gentle rubbing of the intimal surface with a wire. To confirm the presence or absence of endothelial cells, tissues were precontracted with a sub-maximal concentration of phenylephrine (0.3 μM) and the response to acetylcholine (ACh, 10 μM) observed. Ach-induced relaxation greater than 80% of maximum indicated the presence of endothelium; whereas Ach-induced relaxation less than 10% indicated the absence of endothelium. Ring preparations under resting tension were conditioned by two contraction/relaxation cycles with 40 mM KCl, contracted by a third application of 40 mM KCl and then relaxed with different doses of the venom peptides. Responses were expressed as a percentage relaxation of the precontraction by KCl.
In addition to the peptides tested in example 3, a series of 13 analogs corresponding to the 2a, 2b and 2c grouping of peptides were examined for their ability to dilate noradrenaline constricted aortic rings. The degree of constriction was expressed as a percentage of the KCl induced constriction. The aortic rings were prepared in a manner similar to the method described in example 3. […]. In each case there were at least 3 separate aortic rings tested per peptide and all were denuded of endothelium to ensure responses were confined to the GC A receptor.

conscious rabbits = assay: Blood pressure and heart rate in conscious rabbits, intravenous infusion dose-response (Example 8); details: for recovery of MAP, in words: 2 hours after infusion; for MAP at final dose / Recovery (MAP) / Recovery Delta SED (MAP) / Treatment Effect, change of mean blood pressure during the infusion: Table 10B; for Recovery (MAP) / Recovery Delta SED (MAP): after a 2 hour recovery period; for Treatment Effect, change of mean blood pressure during the infusion: final dose, groups 2B and 2C

| Compound | −Log10 EC50 (pEC50) ± Standard Error [1] | EC50 [1] [M] | Mean relaxation SEM of denuded aortic rings expressed as % of KCl response [2] [%] | recovery of MAP, in words (conscious rabbits) | MAP at final dose (conscious rabbits) [mm Hg] | Recovery (MAP) (conscious rabbits) [mm Hg] | Recovery Delta SED (MAP) (conscious rabbits) [mm Hg] | Treatment Effect, change of mean blood pressure during the infusion (conscious rabbits) [mm Hg] |
| --- | --- | --- | --- | --- | --- | --- | --- | --- |
| CC[C@H](C)[C@H](NC(=O)[C@H](CCCCN)NC(=O)[C@H](CO)NC(=O)[C@H](CC(=O)O)NC(=O)[C@@H](N)CO)C(=O)NCC(=O)N[C@@H](C)C(=O)NCC(=O)N[C@H]1CSSC[C@@H](C(=O)N[C@@H](CC(N)=O)C(=O)N[C@@H](CCCNC(=N)N)C(=O)N[C@H](C(=O)N[C@@H](CCSC)C(=O)N[C@@H](CCC(N)=O)C(=O)N[C@@H](CC(N)=O)C(=O)N2CCC[C@H]2C(=O)N2CCC[C@H]2C(=O)N[C@@H](CCCCN)C(=O)N[C@@H](CCCCN)C(=O)N[C@@H](Cc2ccccc2)C(=O)N[C@@H](CO)C(=O)NCC(=O)N[C@@H](CCC(=O)O)C(=O)O)[C@@H](C)CC)NC(=O)CNC(=O)[C@H](CC(C)C)NC(=O)CNC(=O)[C@H](CO)NC(=O)[C@H](C(C)C)NC(=O)[C@H](CO)NC(=O)CNC(=O)[C@H]([C@@H](C)CC)NC(=O)[C@H](CCCNC(=N)N)NC(=O)[C@H](CC(=O)O)NC(=O)[C@H](CC(C)C)NC(=O)[C@@H]2CCCN2C(=O)[C@H](Cc2ccccc2)NC(=O)CNC(=O)[C@H](Cc2ccccc2)NC1=O [TNPc A7] (H-SDSKIGAGCFGFPLDRIGSVSGLGCNRIMQNPPKKFSGE-OH; disulfide 9-25; N-terminus assumed) | 6.867 ± 0.1915 | 1.61e-07 | 32.9 ± 4.5 | did not recover after 2 hours | 64.0 | 71.3 | 7.3 ± 2.9 | −11.2 |
| CC[C@H](C)[C@@H]1NC(=O)[C@H](CCCNC(=N)N)NC(=O)[C@H](CC(=O)O)NC(=O)[C@H](CC(C)C)NC(=O)[C@@H]2CCCN2C(=O)[C@H](Cc2ccccc2)NC(=O)CNC(=O)[C@H](Cc2ccccc2)NC(=O)[C@@H](NC(=O)CNC(=O)[C@H](CO)NC(=O)CNC(=O)[C@H](CCC(N)=O)NC(=O)[C@@H](NC(=O)[C@H](CCSC)NC(=O)[C@H](CCCCN)NC(=O)[C@@H]2CCCN2C(=O)[C@@H](N)CO)C(C)C)CSSC[C@@H](C(=O)N[C@@H](CC(N)=O)C(=O)N[C@@H](CCCNC(=N)N)C(=O)N[C@H](C(=O)N[C@@H](CCSC)C(=O)N[C@@H](CCC(N)=O)C(=O)N[C@@H](CC(N)=O)C(=O)N2CCC[C@H]2C(=O)N2CCC[C@H]2C(=O)N[C@@H](CCCCN)C(=O)N[C@@H](CCCCN)C(=O)N[C@@H](Cc2ccccc2)C(=O)N[C@@H](CO)C(=O)NCC(=O)N[C@@H](CCC(=O)O)C(=O)O)[C@@H](C)CC)NC(=O)CNC(=O)[C@H](CC(C)C)NC(=O)CNC(=O)[C@H](CO)NC(=O)[C@H](C(C)C)NC(=O)[C@H](CO)NC(=O)CNC1=O [TNPc BTT] (H-SPKMVQGSGCFGFPLDRIGSVSGLGCNRIMQNPPKKFSGE-OH; disulfide 10-26; N-terminus assumed) | 8.177 ± 0.1049 | 7.06e-09 | 62.1 ± 6.6 | did not recover after 2 hours | 63.4 | 65.4 | 2.1 ± 1.5 | −10.8 |
| CC[C@H](C)[C@H](NC(=O)[C@H](CCCCN)NC(=O)[C@H](CO)NC(=O)[C@H](CC(=O)O)NC(=O)[C@@H](N)CO)C(=O)NCC(=O)N[C@@H](CC(N)=O)C(=O)NCC(=O)N[C@H]1CSSC[C@@H](C(=O)N[C@@H](CC(N)=O)C(=O)N[C@@H](CCCNC(=N)N)C(=O)N[C@H](C(=O)N[C@@H](CCSC)C(=O)N[C@@H](CCC(N)=O)C(=O)N[C@@H](CC(N)=O)C(=O)N2CCC[C@H]2C(=O)N2CCC[C@H]2C(=O)N[C@@H](CCCCN)C(=O)N[C@@H](CCCCN)C(=O)N[C@@H](Cc2ccccc2)C(=O)N[C@@H](CO)C(=O)NCC(=O)N[C@@H](CCC(=O)O)C(=O)O)[C@@H](C)CC)NC(=O)CNC(=O)[C@H](CC(C)C)NC(=O)CNC(=O)[C@H](CO)NC(=O)[C@H](C(C)C)NC(=O)[C@H](CO)NC(=O)CNC(=O)[C@H]([C@@H](C)CC)NC(=O)[C@H](CCCNC(=N)N)NC(=O)[C@H](CC(=O)O)NC(=O)[C@H](CC(C)C)NC(=O)[C@@H]2CCCN2C(=O)[C@H](Cc2ccccc2)NC(=O)CNC(=O)[C@H](CC2CCCCC2)NC1=O [TNPc Cha-10] (H-SDSKIGNGC[Cha]GFPLDRIGSVSGLGCNRIMQNPPKKFSGE-OH; disulfide 9-25; N-terminus assumed) | 7.84 | 1.44e-08 | 64.2 ± 4.2 | partially recovered | 67.3 | 76.5 | 9.1 ± 3.9 | −10.8 |
| SDSKISAGCFGFPLDRIGSVSGLGCNRIMQNPPKKFSGE (A portion of a natriuretic peptide) [TNPc A7S6] | – | – | 43.1 ± 8.6 | partially recovered | 56.3 | 66.8 | 10.5 ± 3.1 | −12.9 |
| SDSKISKGCFGFPLDRIGSVSGLGCNRIMQNPPKKFSGE (A portion of a natriuretic peptide) [TNPc K7S6] | – | – | 43.8 ± 4.3 | did not recover after 2 hours | 60.3 | 64.2 | 3.9 ± 2.6 | −12.6 |
| ZSDSKIGNGCFGFPLDRIGSVSGLGCNRIMQNPPKKFSGE ([pGlu]SDSKIGNGCFGFPLDRIGSVSGLGCNRIMQNPPKKFSGE; disulfide 10-26 (inferred); not fully specified; ends not checked) [TNPc Z0] | – | – | 61.5 ± 5.5 | partially recovered | 63.3 | 72.2 | 9.0 ± 1.0 | −11.0 |
